Measured values as given in PMC4077824, “Conserved Prosegment Residues Stabilize a Late-Stage Folding Transition State of Pepsin Independently of Ground States” (PLoS ONE, 2014).
Values joined by “and” are separate entries in the source; they are usually repeats but may differ in a detail not shown here. Equal values may be shown once. Where no end group is shown, it is not given here.

Legend:
[1] = tested on: pepsin (PS-Rp, PS-TS, PS-Np complexes); assay: Φ-value analysis from PS-catalyzed folding and binding constants; set-up: species or system porcine; settings: for Φ: ratio ΔΔG^‡/ΔΔGPS(Np-Rp); for Φ / ΔΔGPS(Np-Rp) (change in equilibrium stability of PS-Np relative to PS-Rp): ± SD by propagation of errors; for ΔΔGPS(Np-Rp) (change in equilibrium stability of PS-Np relative to PS-Rp): ΔΔGPS-Np minus ΔΔGPS-Rp; for effect on PS-TS stability (in words): ΔΔGPS-TS = ΔΔG^‡ + ΔΔGPS-Rp
Description: Calculation of Φ-values from PS-catalyzed folding and binding constants
The change in stability of the folding transition state upon mutation was calculated using [drawing 3] (3) where k f, wt and k f, mut are the PS-catalyzed folding rate constants of the wild-type and mutant PS peptides. The change in equilibrium stability of PS-Np relative to PS-Rp upon mutation of the PS (ΔΔGPS(Np-Rp)) was determined as the difference between the changes in binding energies, using [drawing 4] (4) and [drawing 5] (5)
Here, ΔΔGbind refers to either ΔΔGPS-Rp, determined from K d values, or ΔΔGPS-Np, determined from K i values. The Φ-value for each mutant corresponds to eq 3 divided by eq 5. Additional details are included in the supporting information section (Text S1).
As outlined below, ∆Gbind values are used to calculate ∆∆GPS(Np-Rp), which is the change in the equilibrium free energy difference between PS-Np and PS-Rp upon mutation of the PS (for a diagram of the folding reaction, see Fig S1)
ΔΔGbind can refer to either ∆∆G^PS-Np(wt-mut) or ∆∆G^PS-Rp(wt-mut). Also, we can write ∆Gbind in terms of its components
where ∆GPS, ∆Gpepsin and ∆Gsolvent refer to the change in free energy of the PS, pepsin and the solvent upon PS binding to pepsin, respectively. Combining equations S1 and S2 gives
The contribution of each component to ∆∆Gbind will depend on the particular mutation (e.g., nature of substitution, location within folded structure, solvent accessibility). This is the general case for protein engineering analysis, in which the effects of mutations on changes in equilibrium and activation energies are the result of many individual interaction energy terms, including solvent terms, as previously explained in detail [Fersht AR, Matouschek A, Serrano L (1992) The folding of an enzyme I. Theory of protein engineering analysis of stability and pathway of protein folding. J Mol Biol 224: 771‒782]. Most importantly, there is no requirement to separate ΔΔGbind into its components in order to proceed with analysis as we are interested in the overall change in equilibrium stability of the PS-pepsin complex (∆∆GPS(Np-Rp))
This bimolecular approach to Φ-value analysis of protein folding is qualitatively identical to Φ-value analysis as it was originally applied to the study of enzyme catalysis. As outlined previously [Fersht AR], changes in the free energy of enzyme (E) binding to substrate (S) or product (P) are used to determine the change in free energy difference between E-P and E-S upon mutation, ∆∆G^EP-ES(wt-mut), where
As these are at the scale of global energy terms, equations S4 and S5 are equivalent and PS-catalyzed folding can be treated similarly as enzyme catalysis, in which the PS is the foldase and the denatured and natively folded protein are the substrate and product, respectively. However, protein folding reactions are more complicated to interpret at the level of individual interaction energy terms, which are more numerous [Fersht AR].
Changes in the binding energies between PS-Rp and PS-Np upon PS mutation can then be used to determine Φ-values with the following considerations:
1. Free PS is unstructured (see Fig S6), so Ala mutations are expected to have a negligible effect on the stability and conformation of free PS.
2. Changes in binding and folding upon mutation can be localized to the loss of interactions in the immediate vicinity of the truncation mutation (i.e., larger residue mutated to Ala), and not due to gross conformational changes of the PS or changes in the binding/folding mechanism (consider as strong evidence that all of the mutant PS’s readily catalyze folding to the native, active form).
3. Changes in PS-Rp and PS-Np binding energies upon mutation (∆∆G^PS-Np(wt-mut) and ∆∆G^PS-Rp(wt-mut)) are measured directly, while the change in the PS-TS binding energy (∆∆G^PS-TS(wt-mut)) is the sum of ∆∆G^PS-Rp(wt-mut) and ∆∆G^‡(wt-mut).
4. Φ-values are calculated using […]

[2] = target: T1, refolded pepsin (Rp) (Sus scrofa, UniProt P00791); assay: PS-catalyzed folding of Rp to Np (recovery of Np activity); type: biochemical, porcine; settings: PS with Rp, without 100 mM NaCl, timescale of 0–2 hours; data not shown, and [7]
T1 construct: Only the R13 and K36 side-chains of the PS form hydrogen bonds with the mature pepsin domain; purchased Sigma (St. Louis, MO, USA)

[3] = target: T2, native pepsin (Np) (Sus scrofa, UniProt P00791); settings: ref [7]; cited from earlier work
T2 construct: Only the R13 and K36 side-chains of the PS form hydrogen bonds with the mature pepsin domain; purchased Sigma (St. Louis, MO, USA)
Description: (§1) Figure 1 Zymogen-derived proteins deviate from common trends in protein folding. (A) Comparison of the non- and PS-catalyzed folding of αLP [8], SGPB [5] and pepsin [7]. (B) Relation between topology and folding rate for a number of two- and three-state folding proteins (circles, data taken from, [21], [22]). The folding rate of αLP (squares), SGPB (triangles) and pepsin (stars) is accelerated to the value (hollow points) expected based on the topology, only when the PS is included. (C) Reaction scheme of pepsin PS-catalyzed folding. […] It seems likely that the PS has achieved this higher affinity for the TS via a concerted optimization of side-chain packing, hydrogen bonding and electrostatics, as evidenced by polar, hydrophobic and charged groups selectively stabilizing the TS ( Fig 3A ). Furthermore, this concerted optimization likely involves both non-native and strengthened native contacts, given the range of interactions involved. In the native fold [ ...

[4] = target: T1, refolded pepsin (Rp); settings: ref [7]; cited from earlier work
Description: as §1

[5] = tested on: pepsin (PS-Rp, PS-TS, PS-Np complexes); settings: ref [7]; cited from earlier work
Description: It seems likely that the PS has achieved this higher affinity for the TS via a concerted optimization of side-chain packing, hydrogen bonding and electrostatics, as evidenced by polar, hydrophobic and charged groups selectively stabilizing the TS ( Fig 3A ). Furthermore, this concerted optimization likely involves both non-native and strengthened native contacts, given the range of interactions involved. In the native fold [ ...

[6] = tested on: refolded pepsin (Rp); settings: 1H-15N TROSY NMR, absence of 100 mM NaCl; ref [51]; cited from earlier work
Description: Coarse-grain simulations have been used to understand the nature of non-native interactions in small, single-domain proteins lacking stable folding intermediates, [48], [49]. […] It would be challenging, but not impossible, to use similar coarse-grain approaches to model the folding of pepsinogen (370 residues). Using simulation to gain insigh ... || PS binding to Rp was measured in buffer without added 100 mM NaCl in order to obtain more accurate measurements of K d, owing to a larger change in signal in the absence of salt. Additionally, without added 100 mM NaCl it was possible to isolate the PS-Rp binding step from the catalyzed folding step thereby improving the determination of K d. […] However, ^1H-^15N TROSY NMR experiments indicated tha ...

T1 sequence (P00791 60-385): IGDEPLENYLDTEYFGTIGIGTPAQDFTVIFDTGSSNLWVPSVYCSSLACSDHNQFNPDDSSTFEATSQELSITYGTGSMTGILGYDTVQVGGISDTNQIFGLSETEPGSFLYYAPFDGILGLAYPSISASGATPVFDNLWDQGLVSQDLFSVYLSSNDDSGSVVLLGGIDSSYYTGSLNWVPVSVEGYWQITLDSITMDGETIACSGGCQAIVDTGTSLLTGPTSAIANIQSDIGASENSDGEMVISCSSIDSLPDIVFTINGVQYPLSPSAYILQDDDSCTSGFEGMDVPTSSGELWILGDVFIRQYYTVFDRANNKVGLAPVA
T2 sequence (P00791 60-385): as above

Row | Φ [1] | ΔΔGPS(Np-Rp) (change in equilibrium stability of PS-Np relative to PS-Rp) [1] [kJ/mol] | Sequence | effect on PS-TS stability (in words) [1] | generation of protease activity without added NaCl [2] | affinity for Np [3] | affinity for Rp [4] | affinity for folding TS [5] | folding of PS-Rp to native complex without 100 mM NaCl [6]
1 | 0 and 0.0±0.1 | 5.27 ± 1.17 | LVKVPLVRKKSLRQNLAKNGKLKDFLKTHKHNPASKYFPEAAAL [I17A] | negligible effect on PS-Rp and PS-TS stability |  |  |  |  | 
2 |  |  | LVKVPLVRKKSLRQNLIKNGKLKDFLKTHKHNPASKYFPEAAAL [WT] |  | no generation of protease activity was observed | nano- | micromolar | picomolar affinity | does fold to the native complex
3 | −1.0±0.3 | -3.89 ± 0.753 | LVKAPLVRKKSLRQNLIKNGKLKDFLKTHKHNPASKYFPEAAAL [V4A] | destabilizing to the TS |  |  |  |  | 
